From patent publication US6541450B1, “Parathyroid hormone analogues for the treatment of osteoporosis” (National Research Council of Canada, priority 1994, dated 2003)
Where a SMILES comes first, the peptide text is derived from it. Bridges are numbered along the chain shown (N, C = ends). [ ]: non-standard residue; d: D form. Nle = CCCC[C@H](N)C(=O)O; Orn = NCCC[C@H](N)C(=O)O

target: T1, adenylyl cyclase, ROS 17/2 cells (Rattus norvegicus, UniProt P25961); assay: Adenylyl cyclase stimulation, [3H]-cyclic AMP production in ROS 17/2 cells; type: cell-based; details: ROS 17/2 cells; concentration for half-maximal increase in AC activity; read-out: Adenylyl Cyclase (EC50)
T1 sequence (P25961 27-591): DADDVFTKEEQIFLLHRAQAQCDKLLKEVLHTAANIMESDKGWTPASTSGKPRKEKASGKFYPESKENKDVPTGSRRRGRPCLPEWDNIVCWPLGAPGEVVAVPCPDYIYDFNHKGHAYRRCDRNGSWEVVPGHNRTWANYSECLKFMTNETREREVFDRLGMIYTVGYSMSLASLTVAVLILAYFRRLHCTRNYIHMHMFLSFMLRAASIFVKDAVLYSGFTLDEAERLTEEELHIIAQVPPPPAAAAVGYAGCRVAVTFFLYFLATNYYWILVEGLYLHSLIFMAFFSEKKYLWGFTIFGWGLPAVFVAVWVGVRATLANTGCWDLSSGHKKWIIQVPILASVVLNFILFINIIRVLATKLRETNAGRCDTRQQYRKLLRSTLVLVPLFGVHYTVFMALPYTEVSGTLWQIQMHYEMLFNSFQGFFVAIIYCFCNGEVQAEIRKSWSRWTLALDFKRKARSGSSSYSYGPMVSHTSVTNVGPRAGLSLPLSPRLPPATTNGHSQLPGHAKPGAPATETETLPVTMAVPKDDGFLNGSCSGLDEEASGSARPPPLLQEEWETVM

| EC50 | Compound |
| --- | --- |
| 16 nM | CC[C@H](C)[C@H](NC(=O)[C@H](CCC(=O)O)NC(=O)[C@H](CO)NC(=O)[C@@H](NC(=O)[C@@H](N)CO)C(C)C)C(=O)N[C@@H](CCC(N)=O)C(=O)N[C@@H](CC(C)C)C(=O)N[C@@H](CCSC)C(=O)N[C@@H](Cc1c[nH]cn1)C(=O)N[C@@H](CC(N)=O)C(=O)N[C@@H](CC(C)C)C(=O)NCC(=O)N[C@@H](CCCCN)C(=O)N[C@@H](Cc1c[nH]cn1)C(=O)N[C@@H](CC(C)C)C(=O)N[C@@H](CC(N)=O)C(=O)N[C@@H](CO)C(=O)N[C@@H](CCSC)C(=O)N[C@@H](CCC(=O)O)C(=O)N[C@@H](CCCNC(=N)N)C(=O)N[C@H](C(=O)N[C@H]1CSSC[C@@H](C(=O)N[C@@H](CC(C)C)C(=O)N[C@@H](CC(C)C)C(=O)N[C@@H](CCC(N)=O)C(=O)N[C@@H](CC(=O)O)C(=O)N[C@H](C(N)=O)C(C)C)NC(=O)[C@H](CCCNC(=N)N)NC(=O)[C@H](CC(C)C)NC(=O)[C@H](Cc2c[nH]c3ccccc23)NC1=O)C(C)C [[Cys^22, Cys^26, Leu^27]cyclo(Cys^22—Cys^26)—hPTH—(1-31)-NH2] (H-SVSEIQLMHNLGKHLNSMERVCWLRCLLQDV-NH2; disulfide 22-26) |
| 24 nM | CC[C@H](C)[C@H](NC(=O)[C@H](CCC(=O)O)NC(=O)[C@H](CO)NC(=O)[C@@H](NC(=O)[C@@H](N)CO)C(C)C)C(=O)N[C@@H](CCC(N)=O)C(=O)N[C@@H](CC(C)C)C(=O)N[C@@H](CCSC)C(=O)N[C@@H](Cc1c[nH]cn1)C(=O)N[C@@H](CC(N)=O)C(=O)N[C@@H](CC(C)C)C(=O)NCC(=O)N[C@@H](CCCCN)C(=O)N[C@@H](Cc1c[nH]cn1)C(=O)N[C@@H](CC(C)C)C(=O)N[C@@H](CC(N)=O)C(=O)N[C@@H](CO)C(=O)N[C@@H](CCSC)C(=O)N[C@@H](CCC(=O)O)C(=O)N[C@@H](CCCNC(=N)N)C(=O)N[C@H](C(=O)N[C@@H](CCC(=O)O)C(=O)N[C@@H](Cc1c[nH]c2ccccc12)C(=O)N[C@@H](CC(C)C)C(=O)N[C@@H](CCCNC(=N)N)C(=O)N[C@H]1CSSC[C@@H](C(=O)N[C@H](C(N)=O)C(C)C)NC(=O)[C@H](CCC(N)=O)NC(=O)[C@H](CC(C)C)NC(=O)[C@H](CC(C)C)NC1=O)C(C)C [[Cys^26, Cys^30, Leu^27]cyclo(Cys^26—Cys^30)—hPTH—(1-31)-NH2] (H-SVSEIQLMHNLGKHLNSMERVEWLRCLLQCV-NH2; disulfide 26-30) |
| > 200 nM | CC[C@H](C)[C@H](NC(=O)[C@H](CCC(=O)O)NC(=O)[C@H](CO)NC(=O)[C@@H](NC(=O)[C@@H](N)CO)C(C)C)C(=O)N[C@@H](CCC(N)=O)C(=O)N[C@@H](CC(C)C)C(=O)N[C@@H](CCSC)C(=O)N[C@@H](Cc1c[nH]cn1)C(=O)N[C@@H](CC(N)=O)C(=O)N[C@@H](CC(C)C)C(=O)NCC(=O)N[C@@H](CCCCN)C(=O)N[C@@H](Cc1c[nH]cn1)C(=O)N[C@@H](CC(C)C)C(=O)N[C@@H](CC(N)=O)C(=O)N[C@@H](CO)C(=O)N[C@@H](CCSC)C(=O)N[C@@H](CCC(=O)O)C(=O)N[C@@H](CCCNC(=N)N)C(=O)N[C@H](C(=O)N[C@H]1CC(=O)NCCC[C@@H](C(=O)N[C@@H](CC(C)C)C(=O)N[C@@H](CC(C)C)C(=O)N[C@@H](CCC(N)=O)C(=O)N[C@@H](CC(=O)O)C(=O)N[C@H](C(N)=O)C(C)C)NC(=O)[C@H](CCCNC(=N)N)NC(=O)[C@H](CC(C)C)NC(=O)[C@H](Cc2c[nH]c3ccccc23)NC1=O)C(C)C [[Leu^27]cyclo(Asp^22—Orn^26)—hPTH—(1-31)-NH2] (H-SVSEIQLMHNLGKHLNSMERVDWLR[Orn]LLQDV-NH2; lactam 22-26; N-terminus assumed) |
| 6 nM | CC[C@H](C)[C@H](NC(=O)[C@H](CCC(=O)O)NC(=O)[C@H](CO)NC(=O)[C@@H](NC(=O)[C@@H](N)CO)C(C)C)C(=O)N[C@@H](CCC(N)=O)C(=O)N[C@@H](CC(C)C)C(=O)N[C@@H](CCSC)C(=O)N[C@@H](Cc1c[nH]cn1)C(=O)N[C@@H](CC(N)=O)C(=O)N[C@@H](CC(C)C)C(=O)NCC(=O)N[C@@H](CCCCN)C(=O)N[C@@H](Cc1c[nH]cn1)C(=O)N[C@@H](CC(C)C)C(=O)N[C@@H](CC(N)=O)C(=O)N[C@@H](CO)C(=O)N[C@@H](CCSC)C(=O)N[C@@H](CCC(=O)O)C(=O)N[C@@H](CCCNC(=N)N)C(=O)N[C@H](C(=O)N[C@H]1CCC(=O)NCCCC[C@@H](C(=O)N[C@@H](CC(C)C)C(=O)N[C@@H](CC(C)C)C(=O)N[C@@H](CCC(N)=O)C(=O)N[C@@H](CC(=O)O)C(=O)N[C@H](C(=O)N[C@@H](Cc2c[nH]cn2)C(=O)N[C@@H](CC(N)=O)C(=O)N[C@@H](Cc2ccccc2)C(=O)O)C(C)C)NC(=O)[C@H](CCCNC(=N)N)NC(=O)[C@H](CC(C)C)NC(=O)[C@H](Cc2c[nH]c3ccccc23)NC1=O)C(C)C [[Leu^27]cyclo(Glu^22—Lys^26)—hPTH—(1-34)-OH] (H-SVSEIQLMHNLGKHLNSMERVEWLRKLLQDVHNF-OH; lactam 22-26; N-terminus assumed) |
| 6 nM | CCCC[C@H](NC(=O)[C@H](CO)NC(=O)[C@H](CC(N)=O)NC(=O)[C@H](CC(C)C)NC(=O)[C@H](Cc1c[nH]cn1)NC(=O)[C@H](CCCCN)NC(=O)CNC(=O)[C@H](CC(C)C)NC(=O)[C@H](CC(N)=O)NC(=O)[C@H](Cc1c[nH]cn1)NC(=O)[C@H](CCCC)NC(=O)[C@H](CC(C)C)NC(=O)[C@H](CCC(N)=O)NC(=O)[C@@H](NC(=O)[C@H](CCC(=O)O)NC(=O)[C@H](CO)NC(=O)[C@@H](NC(=O)[C@@H](N)CO)C(C)C)[C@@H](C)CC)C(=O)N[C@@H](CCC(=O)O)C(=O)N[C@@H](CCCNC(=N)N)C(=O)N[C@H](C(=O)N[C@H]1CCC(=O)NCCCC[C@@H](C(=O)N[C@@H](CC(C)C)C(=O)N[C@@H](CC(C)C)C(=O)N[C@@H](CCC(N)=O)C(=O)N[C@@H](CC(=O)O)C(=O)N[C@H](C(N)=O)C(C)C)NC(=O)[C@H](CCCNC(=N)N)NC(=O)[C@H](CC(C)C)NC(=O)[C@H](Cc2c[nH]c3ccccc23)NC1=O)C(C)C [[Nle^8.18, Leu^27]cyclo(Glu^22—Lys^26)—hPTH—(1-31)-NH2] (H-SVSEIQL[Nle]HNLGKHLNS[Nle]ERVEWLRKLLQDV-NH2; lactam 22-26; N-terminus assumed) |
| 9 nM | CCCC[C@H](NC(=O)[C@@H]1CCCCNC(=O)CC[C@H](NC(=O)[C@@H](NC(=O)[C@H](CCCNC(=N)N)NC(=O)[C@H](CCC(=O)O)NC(=O)[C@H](CCSC)NC(=O)[C@H](CO)NC(=O)[C@H](CC(N)=O)NC(=O)[C@H](CC(C)C)NC(=O)[C@H](Cc2c[nH]cn2)NC(=O)[C@H](CCCCN)NC(=O)CNC(=O)[C@H](CC(C)C)NC(=O)[C@H](CC(N)=O)NC(=O)[C@H](Cc2c[nH]cn2)NC(=O)[C@H](CCSC)NC(=O)[C@H](CC(C)C)NC(=O)[C@H](CCC(N)=O)NC(=O)[C@@H](NC(=O)[C@H](CCC(=O)O)NC(=O)[C@H](CO)NC(=O)[C@@H](NC(=O)[C@@H](N)CO)C(C)C)[C@@H](C)CC)C(C)C)C(=O)N[C@@H](Cc2c[nH]c3ccccc23)C(=O)N[C@@H](CC(C)C)C(=O)N[C@@H](CCCNC(=N)N)C(=O)N1)C(=O)N[C@@H](CC(C)C)C(=O)N[C@@H](CCC(N)=O)C(=O)N[C@@H](CC(=O)O)C(=O)N[C@H](C(N)=O)C(C)C [[Nle^27]cyclo(Glu^22—Lys^26)—hPTH—(1-31)-NH2] (H-SVSEIQLMHNLGKHLNSMERVEWLRK[Nle]LQDV-NH2; lactam 22-26) |
| 9 nM | CC[C@H](C)[C@H](NC(=O)[C@H](CCC(=O)O)NC(=O)[C@H](CO)NC(=O)[C@@H](NC(=O)[C@@H](N)CO)C(C)C)C(=O)N[C@@H](CCC(N)=O)C(=O)N[C@@H](CC(C)C)C(=O)N[C@@H](CCSC)C(=O)N[C@@H](Cc1c[nH]cn1)C(=O)N[C@@H](CC(N)=O)C(=O)N[C@@H](CC(C)C)C(=O)NCC(=O)N[C@@H](CCCCN)C(=O)N[C@@H](Cc1c[nH]cn1)C(=O)N[C@@H](CC(C)C)C(=O)N[C@@H](CC(N)=O)C(=O)N[C@@H](CO)C(=O)N[C@@H](CCSC)C(=O)N[C@@H](CCC(=O)O)C(=O)N[C@@H](CCCNC(=N)N)C(=O)N[C@H](C(=O)N[C@H]1CCC(=O)NCCCC[C@@H](C(=O)N[C@@H](Cc2ccc(O)cc2)C(=O)N[C@@H](CC(C)C)C(=O)N[C@@H](CCC(N)=O)C(=O)N[C@@H](CC(=O)O)C(=O)N[C@H](C(N)=O)C(C)C)NC(=O)[C@H](CCCNC(=N)N)NC(=O)[C@H](CC(C)C)NC(=O)[C@H](Cc2c[nH]c3ccccc23)NC1=O)C(C)C [[Tyr^27]cyclo(Glu^22—Lys^26)—hPTH—(1-31)-NH2] (H-SVSEIQLMHNLGKHLNSMERVEWLRKYLQDV-NH2; lactam 22-26; N-terminus assumed) |
| 17 nM | CC[C@H](C)[C@H](NC(=O)[C@H](CCC(=O)O)NC(=O)[C@H](CO)NC(=O)[C@@H](NC(=O)[C@@H](N)CO)C(C)C)C(=O)N[C@@H](CCC(N)=O)C(=O)N[C@@H](CC(C)C)C(=O)N[C@@H](CCSC)C(=O)N[C@@H](Cc1c[nH]cn1)C(=O)N[C@@H](CC(N)=O)C(=O)N[C@@H](CC(C)C)C(=O)NCC(=O)N[C@@H](CCCCN)C(=O)N[C@@H](Cc1c[nH]cn1)C(=O)N[C@@H](CC(C)C)C(=O)N[C@@H](CC(N)=O)C(=O)N[C@@H](CO)C(=O)N[C@@H](CCSC)C(=O)N[C@@H](CCC(=O)O)C(=O)N[C@@H](CCCNC(=N)N)C(=O)N[C@H](C(=O)N[C@H]1CCC(=O)NCCCC[C@@H](C(=O)N[C@@H](CCCCN)C(=O)N[C@@H](CC(C)C)C(=O)N[C@@H](CCC(N)=O)C(=O)N[C@@H](CC(=O)O)C(=O)N[C@H](C(N)=O)C(C)C)NC(=O)[C@H](CCCNC(=N)N)NC(=O)[C@H](CC(C)C)NC(=O)[C@H](Cc2c[nH]c3ccccc23)NC1=O)C(C)C [cyclo(Glu^22—Lys^26)—hPTH—(1-31)-NH2] |
